Measurements: ChEMBL document CHEMBL2074554, “Expression of the apical conjugate export pump, Mrp2, in the polarized hepatoma cell line, WIF-B” (Hepatology, 1998)

B1: ATP-binding cassette sub-family C member 2 (Rattus norvegicus) (protein)
chain: MDKFCNSTFWDLSLLESPEADLPLCFEQTVLVWIPLGFLWLLAPWQLYSVYRSRTKRSSITKFYLAKQVFVVFLLILAAIDLSLALTEDTGQATVPPVRYTNPILYLCTWLLVLAVQHSRQWCVRKNSWFLSLFWILSVLCGVFQFQTLIRALLKDSKSNMAYSYLFFVSYGFQIVLLILTAFSGPSDSTQTPSVTASFLSSITFSWYDRTVLKGYKHPLTLEDVWDIDEGFKTRSVTSKFEAAMTKDLQKARQAFQRRLQKSQRKPEATLHGLNKKQSQSQDVLVLEEAKKKSEKTTKDYPKSWLIKSLFKTFHVVILKSFILKLIHDLLVFLNPQLLKLLIGFVKSSNSYVWFGYICAILMFAVTLIQSFCLQSYFQHCFVLGMCVRTTVMSSIYKKALTLSNLARKQYTIGETVNLMSVDSQKLMDATNYMQLVWSSVIQITLSIFFLWRELGPSILAGVGVMVLLIPVNGVLATKIRNIQVQNMKNKDKRLKIMNEILSGIKILKYFAWEPSFQEQVQGIRKKELKNLLRFGQLQSLLIFILQITPILVSVVTFSVYVLVDSANVLNAEKAFTSITLFNILRFPLSMLPMVTSSILQASVSVDRLERYLGGDDLDTSAIRRVSNFDKAVKFSEASFTWDPDLEATIQDVNLDIKPGQLVAVVGTVGSGKSSLVSAMLGEMENVHGHITIQGSTAYVPQQSWIQNGTIKDNILFGSEYNEKKYQQVLKACALLPDLEILPGGDMAEIGEKGINLSGGQKQRVSLARAAYQDADIYILDDPLSAVDAHVGKHIFNKVVGPNGLLAGKTRIFVTHGIHFLPQVDEIVVLGKGTILEKGSYRDLLDKKGVFARNWKTFMKHSGPEGEATVNNDSEAEDDDDGLIPTMEEIPEDAASLAMRRENSLRRTLSRSSRSSSRRGKSLKNSLKIKNVNVLKEKEKEVEGQKLIKKEFVETGKVKFSIYLKYLQAVGWWSILFIILFYGLNNVAFIGSNLWLSAWTSDSDNLNGTNNSSSHRDMRIGVFGALGLAQGICLLISTLWSIYACRNASKALHGQLLTNILRAPMRFFDTTPTGRIVNRFSGDISTVDDLLPQTLRSWMMCFFGIAGTLVMICMATPVFAIIIIPLSILYISVQVFYVATSRQLRRLDSVTKSPIYSHFSETVTGLPIIRAFEHQQRFLAWNEKQIDINQKCVFSWITSNRWLAIRLELVGNLVVFCSALLLVIYRKTLTGDVVGFVLSNALNITQTLNWLVRMTSEAETNIVAVERISEYINVENEAPWVTDKRPPADWPRHGEIQFNNYQVRYRPELDLVLKGITCNIKSGEKVGVVGRTGAGKSSLTNCLFRILESAGGQIIIDGIDVASIGLHDLRERLTIIPQDPILFSGSLRMNLDPFNKYSDEEVWRALELAHLRSFVSGLQLGLLSEVTEGGDNLSIGQRQLLCLGRAVLRKSKILVLDEATAAVDLETDSLIQTTIRKEFSQCTVITIAHRLHTIMDSDKIMVLDNGKIVEYGSPEELLSNRGSFYLMAKEAGIENVNHTEL

What was measured:
[1] = biological target: ATP-binding cassette sub-family C member 2 (Rattus norvegicus, UniProt Q63120); test: TP_TRANSPORTER: inhibition of Fluo-3 uptake (Fluo-3: 4.4 uM, PSC 833: 10 uM) in bile canalicular membrane vesicles from Wistar rat; type: functional, cell membranes, Bile canalicular membrane vesicle
[2] = biological target: ABCC2 (MRP2; ATP-binding cassette sub-family C member 2) (Rattus norvegicus, UniProt Q63120); test: TP_TRANSPORTER: inhibition of Fluo-3 secretion into apical vacuoles (Fluo-3: 1 uM, PSC 833: 50 uM) in WIF-B cells; type: functional, cell-based, WIF-B cell; settings: probe Fluo-3 (1 uM)
[3] = substrate: Cc1ccc(N(CC(=O)O)CC(=O)O)c(OCCOc2cc(-c3c4cc(Cl)c(=O)cc-4oc4cc(O)c(Cl)cc34)ccc2N(CC(=O)O)CC(=O)O)c1; test: TP_TRANSPORTER: uptake in bile canalicular membrane vesicles from Wistar/TR- rat; type: functional, cell membranes, Bile canalicular membrane vesicle

Molecule | Activity [1] | inhibition at 50 µM [2] [%] | Km [3] [µM]
C/C=C/C[C@@H](C)C(=O)[C@H]1C(=O)N[C@@H](C(C)C)C(=O)N(C)CC(=O)N(C)[C@@H](CC(C)C)C(=O)N[C@@H](C(C)C)C(=O)N(C)[C@@H](CC(C)C)C(=O)N[C@@H](C)C(=O)N[C@H](C)C(=O)N(C)[C@@H](CC(C)C)C(=O)N(C)[C@@H](CC(C)C)C(=O)N(C)[C@@H](C(C)C)C(=O)N1C [VALSPODAR] | is not an inhibitor [-] | 50 | –
B1 | – | – | 3.7
